Where “and” joins values, the source holds several entries; their conditions need not be identical. Equal values may be shown once. Inconclusive results and toxic doses are left out. Rule as the data show it: active = T/C of 150% or more; inactive = T/C below 125%.
Test system: L1210 leukemia ip in BDF1 mice, survival T/C
Assay: NCI In Vivo Anticancer Drug Screen. Data for tumor model L1210 Leukemia (intraperitoneal) in B6D2F1 (BDF1) mice
Conditions: endpoint: mean survival time, higher = longer survival
Summary of the method: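 Antitumor effect is assessed in tumor-bearing animals. Survival in the compound arm is compared with a vehicle-dosed control arm and expressed as their quotient.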

Measured: T/C

Nc1n[nH]c(N)n1
inactive: dose: 12.5 mg/kg/injection, schedule: Q#A X020 (ip), vehicle: saline 105 % of control | dose: 25.0 mg/kg/injection, schedule: Q01DX010 (ip), vehicle: saline 103 % of control | dose: 25.0 mg/kg/injection, schedule: Q#A X020 (ip), vehicle: saline 109 % of control | dose: 28.0 mg/kg/injection, schedule: Q03HX040 (ip), vehicle: water 105 % of control | dose: 32.0 mg/kg/injection, schedule: Q01DX015 (ip), vehicle: saline 94 % of control | dose: 48.0 mg/kg/injection, schedule: Q## X008 (ip), vehicle: saline 101 % of control | dose: 50.0 mg/kg/injection, schedule: Q01DX010 (ip), vehicle: saline 110 % of control | dose: 50.0 mg/kg/injection, schedule: Q06HX068 (ip), vehicle: water 106 % of control | dose: 56.0 mg/kg/injection, schedule: Q03HX008 (ip), vehicle: water 103 % of control | dose: 56.0 mg/kg/injection, schedule: Q03HX024 (ip), vehicle: water 111 % of control | dose: 63.0 mg/kg/injection, schedule: Q01DX015 (ip), vehicle: saline 102 % of control | dose: 96.0 mg/kg/injection, schedule: Q## X008 (ip), vehicle: saline 102 % of control | dose: 100.0 mg/kg/injection, schedule: Q01DX009 (ip), vehicle: saline 108 % of control | dose: 100.0 mg/kg/injection, schedule: Q01DX009 (sc), vehicle: saline 102 % of control | dose: 100.0 mg/kg/injection, schedule: Q06HX068 (ip), vehicle: water 110 % of control | dose: 100.0 mg/kg/injection, schedule: Q#A X034 (ip), vehicle: water 107 % of control | dose: 111.0 mg/kg/injection, schedule: Q01DX Z (ip), vehicle: methylcellulose (MC) 100 % of control | dose: 112.0 mg/kg/injection, schedule: Q12HX018 (ip), vehicle: water 111 % of control | dose: 125.0 mg/kg/injection, schedule: Q01DX015 (ip), vehicle: saline 110 % of control | dose: 125.0 mg/kg/injection, schedule: Q03HX008 (oral), vehicle: water 107 % of control | dose: 125.0 mg/kg/injection, schedule: Q03HX024 (oral), vehicle: water 105 % of control | dose: 192.0 mg/kg/injection, schedule: Q## X008 (ip), vehicle: saline 104 % of control | dose: 200.0 mg/kg/injection, schedule: Q01DX001 (ip), vehicle: saline 104 % of control and 107 % of control | dose: 200.0 mg/kg/injection, schedule: Q01DX001 (sc), vehicle: saline 104 % of control | dose: 200.0 mg/kg/injection, schedule: Q01DX006 (iv), vehicle: saline 105 % of control | dose: 200.0 mg/kg/injection, schedule: Q01DX009 (sc), vehicle: saline 108 % of control | dose: 200.0 mg/kg/injection, schedule: Q01DX010 (ip), vehicle: saline 98 % of control | dose: 200.0 mg/kg/injection, schedule: Q01DX017 (ip), vehicle: water 111 % of control | dose: 200.0 mg/kg/injection, schedule: Q## X003 (ip), vehicle: saline 110 % of control | dose: 200.0 mg/kg/injection, schedule: Q## X040 (ip), vehicle: saline 104 % of control | dose: 225.0 mg/kg/injection, schedule: Q12HX010 (ip), vehicle: water 107 % of control | dose: 250.0 mg/kg/injection, schedule: Q03HX008 (oral), vehicle: water 107 % of control | dose: 250.0 mg/kg/injection, schedule: Q03HX024 (oral), vehicle: water 102 % of control | dose: 256.0 mg/kg/injection, schedule: Q## X088 (ip), vehicle: other 98 % of control | dose: 384.0 mg/kg/injection, schedule: Q## X008 (ip), vehicle: saline 103 % of control | dose: 395.0 mg/kg/injection, schedule: Q01DX001 (ip), vehicle: saline 101 % of control and 110 % of control | dose: 400.0 mg/kg/injection, schedule: Q01DX001 (ip), vehicle: saline 106 % of control | dose: 400.0 mg/kg/injection, schedule: Q01DX001 (oral), vehicle: water 102 % of control | dose: 400.0 mg/kg/injection, schedule: Q01DX001 (sc), vehicle: saline 102 % of control | dose: 400.0 mg/kg/injection, schedule: Q01DX009 (sc), vehicle: saline 108 % of control | dose: 400.0 mg/kg/injection, schedule: Q01DX010 (ip), vehicle: saline 104 % of control | dose: 400.0 mg/kg/injection, schedule: Q## X003 (ip), vehicle: saline 106 % of control | dose: 400.0 mg/kg/injection, schedule: Q## X024 (ip), vehicle: saline 100 % of control | dose: 400.0 mg/kg/injection, schedule: Q## X040 (ip), vehicle: saline 108 % of control | dose: 450.0 mg/kg/injection, schedule: Q01DX001 (ip), vehicle: water 103 % of control | dose: 500.0 mg/kg/injection, schedule: Q01DX001 (ip), vehicle: water 97 % of control and 102 % of control | dose: 500.0 mg/kg/injection, schedule: Q01DX001 (oral), vehicle: water 104 % of control | dose: 500.0 mg/kg/injection, schedule: Q01DX005 (oral), vehicle: water 101 % of control | dose: 500.0 mg/kg/injection, schedule: Q01DX Z (ip), vehicle: methylcellulose (MC) 110 % of control | dose: 500.0 mg/kg/injection, schedule: Q03HX008 (oral), vehicle: water 108 % of control | dose: 500.0 mg/kg/injection, schedule: Q04DX003 (oral), vehicle: water 105 % of control | dose: 500.0 mg/kg/injection, schedule: Q## X006 (oral), vehicle: water 102 % of control | dose: 592.0 mg/kg/injection, schedule: Q01DX001 (ip), vehicle: saline 105 % of control and 108 % of control | dose: 675.0 mg/kg/injection, schedule: Q06HX016 (ip), vehicle: saline 100 % of control | dose: 768.0 mg/kg/injection, schedule: Q## X008 (ip), vehicle: saline 111 % of control | dose: 800.0 mg/kg/injection, schedule: Q01DX001 (ip), vehicle: saline 102 % of control and 105 % of control and 106 % of control | dose: 800.0 mg/kg/injection, schedule: Q01DX001 (oral), vehicle: water 105 % of control | dose: 800.0 mg/kg/injection, schedule: Q01DX001 (sc), vehicle: saline 110 % of control | dose: 800.0 mg/kg/injection, schedule: Q## X003 (ip), vehicle: saline 108 % of control | dose: 800.0 mg/kg/injection, schedule: Q## X024 (ip), vehicle: saline 106 % of control | dose: 806.0 mg/kg/injection, schedule: Q01DX001 (ip), vehicle: saline 104 % of control | dose: 806.0 mg/kg/injection, schedule: Q08DX002 (ip), vehicle: saline 101 % of control | dose: 888.0 mg/kg/injection, schedule: Q01DX001 (ip), vehicle: saline 106 % of control and 111 % of control | dose: 900.0 mg/kg/injection, schedule: Q01DX001 (ip), vehicle: water 104 % of control | dose: 900.0 mg/kg/injection, schedule: Q03HX024 (ip), vehicle: saline 95 % of control | dose: 900.0 mg/kg/injection, schedule: Q#A X018 (ip), vehicle: water 94 % of control | dose: 1000.0 mg/kg/injection, schedule: Q01DX001 (ip), vehicle: water 101 % of control and 103 % of control | dose: 1000.0 mg/kg/injection, schedule: Q01DX001 (oral), vehicle: water 98 % of control | dose: 1000.0 mg/kg/injection, schedule: Q04DX003 (oral), vehicle: water 107 % of control | dose: 1200.0 mg/kg/injection, schedule: Q01DX001 (ip), vehicle: saline 105 % of control | dose: 1203.0 mg/kg/injection, schedule: Q01DX001 (ip), vehicle: saline 107 % of control | dose: 1203.0 mg/kg/injection, schedule: Q04DX003 (ip), vehicle: saline 110 % of control | dose: 1203.0 mg/kg/injection, schedule: Q08DX002 (ip), vehicle: saline 102 % of control | dose: 1333.0 mg/kg/injection, schedule: Q01DX001 (ip), vehicle: saline 106 % of control and 110 % of control | dose: 1600.0 mg/kg/injection, schedule: Q01DX001 (ip), vehicle: saline 107 % of control and 110 % of control | dose: 1600.0 mg/kg/injection, schedule: Q01DX001 (oral), vehicle: water 108 % of control | dose: 1600.0 mg/kg/injection, schedule: Q01DX001 (sc), vehicle: saline 107 % of control | dose: 1600.0 mg/kg/injection, schedule: Q01DX Z (oral), vehicle: saline 109 % of control | dose: 1796.0 mg/kg/injection, schedule: Q01DX001 (ip), vehicle: saline 109 % of control | dose: 1796.0 mg/kg/injection, schedule: Q08DX002 (ip), vehicle: saline 107 % of control | dose: 1800.0 mg/kg/injection, schedule: Q01DX001 (ip), vehicle: water 103 % of control | dose: 2000.0 mg/kg/injection, schedule: Q01DX001 (ip), vehicle: saline 110 % of control | dose: 2000.0 mg/kg/injection, schedule: Q01DX001 (ip), vehicle: water 101 % of control and 103 % of control | dose: 2000.0 mg/kg/injection, schedule: Q01DX001 (oral), vehicle: water 96 % of control | dose: 2000.0 mg/kg/injection, schedule: Q01DX Z (ip), vehicle: saline 96 % of control | dose: 2000.0 mg/kg/injection, schedule: Q01DX Z (ip), vehicle: water 94 % of control | dose: 2680.0 mg/kg/injection, schedule: Q08DX002 (ip), vehicle: saline 110 % of control | dose: 4000.0 mg/kg/injection, schedule: Q01DX001 (ip), vehicle: water 108 % of control | dose: 4000.0 mg/kg/injection, schedule: Q## X006 (oral), vehicle: water 107 % of control
